Our source for the Ki and inhibition in vivo values is patent US20070142389A1, “PIPERIDINE DERIVATIVES” (PFIZER INC., priority 2005, published 2007).

In experiment [1] the target is T1, human serotonin transporter (Homo sapiens, UniProt P31645).
T1 construct: expressed in transfected cells; host or cells: HEK-293
Description: hSERT Receptor Binding ([125I]-RTI-55 displacement, HEK-293 membranes). To be noted: hSERT, HEK-293 cell membranes, 50 pM [125I]-RTI-55, Ki from IC50 by Cheng-Prusoff; read-out: SERT Ki. Here is the method:
Cell pastes of HEK-293 cells transfected with a human serotonin transporter cDNA were prepared. The cell pastes were resuspended in 400 to 700 mL of Krebs-HEPES assay buffer (25 mM HEPES, 122 mM NaCl, 3 mM KCl, 1.2 mM MgSO4, 1.3 mM CaCl2, and 11 mM glucose, pH 7.4) with a Polytron homogenizer at Setting 7 for 30 seconds. Aliquots of membranes (about 2.5 mg/mL protein) were stored in liquid nitrogen until used.
Assays were set up in FlashPlates pre-coated with 0.1 % PEI in a total volume of 250 μL containing: compound of one of the Examples (10^−5M to 10^−12M), cell membanes, and 50 pM [^125l]-RTI-55 (Perkin Elmer, NEX-272; specific activity 2200 Ci/mmol). The reaction was incubated and gently agitated for 90 minutes at room temperature, and terminated by removal of assay volume. Plates were covered, and bound [^125I]-RTI-55 was determined using a Wallac Trilux Beta Plate Counter. Test compounds were run in duplicate, and specific binding was defined as the difference between binding in the presence and absence of 10 μM citalopram.
(§1) Excel and GraphPad Prism software were used for data calculation and analysis. IC50 values were converted to Ki values using the Cheng-Prusoff equation.

In experiment [2] the test system is capsaicin-induced mechanical allodynia in a rat. The experiment is described as follows: rat model of capsaicin-induced mechanical allodynia. It counts as in vivo. To be noted: sc, male Sprague-Dawley rats, 10 mg/kg subcutaneously, PWT 1 hour after single dose, mean +/- SEM of eight animals, normalized for vehicle, read-out: % Inhibition of Allodynia. Here is the method: Compounds of the present invention may be assayed for their ability to alleviate capsaicin-induced mechanical allodynia in a rat (e.g., Sluka (2002) J of Neuroscience, 22(13): 5687-5693). For example, a rat model of capsaicin-induced mechanical allodynia was carried out as follows:
On day 0, male Sprague-Dawley rats (about 150 g each) in the dark cycle were placed in suspended wire-bottom cages and allowed to acclimate for 0.5 hour in a darkened, quiet room. The day 0 paw withdrawal threshold (PWT) was determined on the left hind paw by Von Frey hair assessment using the Dixon up and down method. After assessment, the plantar muscle of the right hind paw was injected with 100 μL capsaicin (0.25% (w/v) in 10% ethanol, 10% Tween 80, in sterile saline). On day 6 the PWT of the left hind paw (contralateral from injection site) was determined for each animal. Animals from the day 6 prereads with PWT ≦11.7 g were considered allodynic responders and were regrouped so that each cage had similar mean PWT values. On day 7, responders were dosed subcutaneously with 10 mg compound/kg body weight, or with vehicle alone. The vehicle was phosphate buffered saline containing 2% Cremophor® EL (BASF Corp., Florham Park, N.J.). The contralateral PWT values were determined at 1 hour after the single dose, with the investigator blinded to the dosing scheme.
For each animal, the day 6 PWT value was subtracted from the 1 hour PWT value to give a delta PWT value that represents the change in PWT due to the 1 hour drug treatment. In addition, the day 6 PWT was subtracted from the day 0 PWT to give the baseline window of allodynia present in each animal. To determine % inhibition of allodynia of each animal normalized for vehicle controls, the following formula was used: % Inhibition of Allodynia =100× [(Delta PWT(drug)—mean Delta PWT(vehicle))/(Baseline—mean Delta PWT(vehicle))].
The mean percent inhibition of allodynia values (for eight animals assayed for each compound) +/− the standard error of the mean (SEM) are shown in Table 2.

Experiment [3] has as its target T2, human norepinephrine transporter (Homo sapiens, UniProt P23975).
T2 construct: expressed in transfected cells; host or cells: HEK-293
The experiment is described as follows: hNET Receptor Binding ([125I]-RTI-55 displacement, HEK-293 membranes). The conditions noted are these: hNET, HEK-293 cell membranes, 50 pM [125I]-RTI-55, Ki from IC50 by Cheng-Prusoff; read-out: NET Ki. The procedure: Cell pastes of HEK-293 cells transfected with a human norepinephrine transporter cDNA were prepared. The cell pastes were resuspended in 400 to 700 mL of Krebs-HEPES assay buffer (25 mM HEPES, 122 mM NaCl, 3 mM KCl, 1.2 mM MgSO4, 1.3 mM CaCl2, and 11 mM glucose, pH 7.4) with a Polytron homogenizer at setting 7 for 30 seconds. Aliquots of membranes (5 mg/mL protein) were stored in liquid nitrogen until used.
The binding assay was set up in Beckman deep-well polypropylene plates with a total volume of 250 μL containing: compound of one of the Examples (10^−5M to 10^−12M), cell membranes, and 50 pM [^125I]-RTI-55 (Perkin Elmer, NEX-272; specific activity 2200 Ci/mmol). The reaction was incubated by gentle agitation for 90 minutes at room temperature and was terminated by filtration through Whatman GF/C filter plates using a Brandel 96-well plate harvester. Scintillation fluid (100 μL) was added to each well, and bound [^125I]-RTI-55 was determined using a Wallac Trilux Beta Plate Counter. Test compounds were run in duplicate, and specific binding was defined as the difference between binding in the presence and absence of 10 μM desipramine.
as §1

As a reminder, the pKi is −log10 of the Ki, conventionally taken in molar units.

pKi: −log10 of the molar value. Bounds are passed on as bounds.

T2 sequence (P23975 whole entry): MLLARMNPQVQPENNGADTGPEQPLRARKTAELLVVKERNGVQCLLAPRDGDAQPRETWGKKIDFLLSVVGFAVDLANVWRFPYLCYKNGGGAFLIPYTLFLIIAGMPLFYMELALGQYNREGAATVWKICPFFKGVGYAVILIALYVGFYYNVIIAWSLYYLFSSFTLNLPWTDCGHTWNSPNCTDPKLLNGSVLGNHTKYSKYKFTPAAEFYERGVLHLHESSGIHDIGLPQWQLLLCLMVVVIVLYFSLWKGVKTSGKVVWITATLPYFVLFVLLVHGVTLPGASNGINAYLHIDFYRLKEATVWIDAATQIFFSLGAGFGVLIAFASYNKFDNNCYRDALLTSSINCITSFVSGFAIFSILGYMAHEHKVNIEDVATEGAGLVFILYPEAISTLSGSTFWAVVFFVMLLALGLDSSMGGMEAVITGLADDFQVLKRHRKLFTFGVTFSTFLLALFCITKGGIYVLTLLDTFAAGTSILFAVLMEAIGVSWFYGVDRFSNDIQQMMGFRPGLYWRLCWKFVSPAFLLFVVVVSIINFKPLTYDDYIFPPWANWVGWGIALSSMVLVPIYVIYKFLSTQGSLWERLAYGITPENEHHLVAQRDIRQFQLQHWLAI
T1 sequence (P31645 whole entry): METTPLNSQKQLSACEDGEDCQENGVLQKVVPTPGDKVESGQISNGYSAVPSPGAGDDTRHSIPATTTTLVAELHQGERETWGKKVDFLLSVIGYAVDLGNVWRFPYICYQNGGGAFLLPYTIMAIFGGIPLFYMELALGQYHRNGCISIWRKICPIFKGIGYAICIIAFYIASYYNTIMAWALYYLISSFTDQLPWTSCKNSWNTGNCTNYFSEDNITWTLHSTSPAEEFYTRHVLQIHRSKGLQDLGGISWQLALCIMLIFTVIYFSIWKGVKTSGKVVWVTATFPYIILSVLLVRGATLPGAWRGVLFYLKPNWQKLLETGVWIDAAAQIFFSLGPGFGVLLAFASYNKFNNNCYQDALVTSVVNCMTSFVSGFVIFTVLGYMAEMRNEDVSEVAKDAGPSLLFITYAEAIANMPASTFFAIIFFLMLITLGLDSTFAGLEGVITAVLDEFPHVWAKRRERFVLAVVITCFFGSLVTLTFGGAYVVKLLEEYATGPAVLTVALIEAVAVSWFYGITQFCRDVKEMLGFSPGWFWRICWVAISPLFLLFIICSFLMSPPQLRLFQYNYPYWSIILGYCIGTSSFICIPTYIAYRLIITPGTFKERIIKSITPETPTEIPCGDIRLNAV

For the molecule `CCOc1ncccc1OC[C@H]1CNCC[C@@H]1c1ccccc1` (single isomer, unassigned) [Example 1], the figures for the pKi in experiment [1] and in experiment [3] were 7.62 and 8.42, respectively. For the same molecule, in experiment [2], the inhibition in vivo at 10 mg/kg was 82.3%.
On to `CCOc1ncccc1OC[C@H]1CNCC[C@@H]1c1ccccc1` [Example 2, (3R,4S)-2-Ethoxy-3-(4-phenyl-piperidin-3-ylmethoxy)-pyridine], for which the results for the pKi in experiment [1] and in experiment [3] were 8.19 and 5.48, respectively. Besides, in experiment [2], the inhibition in vivo at 10 mg/kg is 1.4%.
In the case of `COc1ncccc1OC[C@@H]1CNCC[C@H]1c1ccccc1` [Example 7, (3S,4R)-2-Methoxy-3-(4-phenyl-piperidin-3-ylmethoxy)-pyridine], the pKi in experiment [1] was 7.75; in experiment [3], 8.48. For the same molecule, the inhibition in vivo at 10 mg/kg in experiment [2] came to 67.3%.
Take `CCCOc1ncccc1OC[C@@H]1CNCC[C@H]1c1ccccc1` [Example 9, (3S,4R)-3-(4-Phenyl-piperidin-3-ylmethoxy)-2-propoxy-pyridine]: the pKi in experiment [1] is 7.76; in experiment [3], 8.52. In experiment [2], the inhibition in vivo at 10 mg/kg is 29.5%.
Consider `COCCOc1ncccc1OC[C@@H]1CNCC[C@H]1c1ccccc1` [Example 11, (3S,4R)-2-(2-Methoxy-ethoxy)-3-(4-phenyl-piperidin-3-ylmethoxy)-pyridine], for which the pKi in experiment [1] is 6.72; in experiment [3], 8.34. For the same molecule, the inhibition in vivo at 10 mg/kg in experiment [2] was 77.3%.
In the case of `N#Cc1cccc(OC[C@@H]2CNCC[C@H]2c2ccccc2)c1` [Example 25, (3S,4R)-3-(4-Phenyl-piperidin-3-ylmethoxy)-benzonitrile], the figures for the pKi in experiment [1] and in experiment [3] were 8.60 and 6.97, respectively.
In the case of `N#Cc1ccc(OC[C@@H]2CNCC[C@H]2c2ccccc2)cc1` [Example 26, (3S,4R)-4-(4-Phenyl-piperidin-3-ylmethoxy)-benzonitrile], the results for the pKi in experiment [1] and in experiment [3] were 7.67 and 7.13, respectively.
Take `CC(C)c1cc(C(N)=O)cc(C(C)C)c1OC[C@@H]1CNCC[C@H]1c1ccccc1` [Example 27, (3S,4R)-3,5-Diisopropyl-4-(4-phenyl-piperidin-3-ylmethoxy)-benzamide]: the pKi was 5.28 in experiment [1] and at most 5.00 in experiment [3].
For `Cc1nccnc1OC[C@@H]1CNCC[C@H]1c1ccccc1` [Example 28, (3S,4R)-2-Methyl-3-(4-phenyl-piperidin-3-ylmethoxy)-pyrazine] the same measures were 5.67 and 5.20.
As for `CNC(=O)c1ccc(OC[C@@H]2CNCC[C@H]2c2ccccc2)cc1` [Example 29, (3S,4R)-N-Methyl-4-(4-phenyl-piperidin-3-ylmethoxy)-benzamide], the pKi in experiment [1] is 6.01; in experiment [3] it was 6.51.
For `CNC(=O)c1ccc(OC[C@@H]2CNCC[C@H]2c2ccccc2)c(OC)c1` [Example 30, (3S,4R)-3-Methoxy-N-methyl-4-(4-phenyl-piperidin-3-ylmethoxy)-benzamide] the same measures were 6.48 and 6.27.
Take `COCc1ncccc1OC[C@@H]1CNCC[C@H]1c1ccccc1` [Example 31, (3S,4R)-2-Methoxymethyl-3-(4-phenyl-piperidin-3-ylmethoxy)-pyridine]: the pKi is 6.05 in experiment [1] and 6.99 in experiment [3].
For `CN(C)C(=O)c1ccc(OC[C@@H]2CNCC[C@H]2c2ccccc2)cc1` [Example 32, (3S,4R)-N,N-Dimethyl-4-(4-phenyl-piperidin-3-ylmethoxy)-benzamide] the same measures were 6.06 and 5.53.
For `NC(=O)c1ccc(OC[C@@H]2CNCC[C@H]2c2ccccc2)c(Cl)c1` [Example 33, (3S,4R)-3—CHloro-4-(4-phenyl-piperidin-3-ylmethoxy)-benzamide] the same measures were 7.74 and 8.07.
For `Cc1cc(C(N)=O)cc(C)c1OC[C@@H]1CNCC[C@H]1c1ccccc1` [Example 34, (3S,4R)-3,5-Dimethyl-4-(4-phenyl-piperidin-3-ylmethoxy)-benzamide] the same measures were 5.46 and 5.84.
`COc1cc(C#N)ccc1OC[C@@H]1CNCC[C@H]1c1ccccc1` [Example 36, (3S,4R) 3-Methoxy-4-(4-phenyl-piperidin-3-ylmethoxy)-benzonitrile]: the figures for the pKi in experiment [1] and in experiment [3] were 7.86 and 6.99, respectively.
For the molecule `NC(=O)c1cc(Cl)ccc1OC[C@@H]1CNCC[C@H]1c1ccccc1` [Example 37, (3S,4R)-5—CHloro-2-(4-phenyl-piperidin-3-ylmethoxy)-benzamide], the pKi in experiment [1] is 6.37; in experiment [3] it was 5.99.
With `NC(=O)c1ncccc1OC[C@@H]1CNCC[C@H]1c1ccccc1` [Example 39, (3S,4R)-3-(4-Phenyl-piperidin-3-ylmethoxy)-pyridine-2-carboxylic acid amide], the pKi in experiment [1] was 6.14; in experiment [3], 6.84.
For `CS(=O)(=O)c1ccccc1OC[C@@H]1CNCC[C@H]1c1ccccc1` [Example 40, (−)-(3S,4R)-3-(2-Methanesulfonyl-phenoxymethyl)-4-phenyl-piperidine] the same measures were 5.25 and 6.12.
Turning to `COc1cccc(F)c1OC[C@@H]1CNCC[C@H]1c1ccccc1` [Example 41, (3S,4R)-3-(2-Fluoro-6-methoxy-phenoxymethyl)-4-phenyl-piperidine], the pKi was 8.57 in experiment [1] and 8.41 in experiment [3].
In the case of `N#Cc1ccccc1OC[C@@H]1CNCC[C@H]1c1ccccc1` [Example 42, (3S, 4R)-2-(4-Phenyl-piperidin-3-ylmethoxy)-benzonitrile], the pKi is 6.20 in experiment [1] and 8.77 in experiment [3].
For `CCOc1cccnc1OC[C@@H]1CNCC[C@H]1c1ccccc1` [Example 43, (3S,4R)-3-Ethoxy-2-(4-phenyl-piperidin-3-ylmethoxy)-pyridine] the same measures were 7.05 and 7.84.
On to `COc1cccnc1OC[C@@H]1CNCC[C@H]1c1ccccc1` [Example 44, (3S,4R)-3-Methoxy-2-(4-phenyl-piperidin-3-ylmethoxy)-pyridine], for which the results for the pKi in experiment [1] and in experiment [3] were 6.80 and 7.48, respectively.
For the molecule `COc1nccnc1OC[C@@H]1CNCC[C@H]1c1ccccc1` [Example 45, (3S,4R)-2-Methoxy-3-(4-phenyl-piperidin-3-ylmethoxy)-pyrazine], the pKi in experiment [1] is 7.14; in experiment [3], 7.44.
For `Cc1cccc(OC[C@@H]2CNCC[C@H]2c2ccccc2)n1` [Example 46, (−)-(3S,4R)-2-Methyl-6-(4-phenyl-piperidin-3-ylmethoxy)-pyridine] the same measures were 6.81 and 6.63.
